{"source": "PubChem BioAssay (NCI)", "assay_in_all_cases": "inhibition of tumour cell growth, NCI panel, 48 h", "key": {"[1]": {"test_system": "NCI-H460 lung"}, "[2]": {"test_system": "HCT-15 colon"}, "[3]": {"test_system": "DU-145 prostate"}, "[4]": {"test_system": "NCI/ADR-RES ovarian"}, "[5]": {"test_system": "A549 NSCLC"}, "[6]": {"test_system": "M14 melanoma"}, "[7]": {"test_system": "786-0 renal"}, "[8]": {"test_system": "PC-3 prostate"}, "[9]": {"test_system": "IGROV1 ovarian"}, "[10]": {"test_system": "EKVX NSCLC"}, "[11]": {"test_system": "SNB-75 CNS"}, "[12]": {"test_system": "KM12 colon"}, "[13]": {"test_system": "BT-549 breast"}, "[14]": {"test_system": "K-562 leukemia"}, "[15]": {"test_system": "U251 CNS"}, "[16]": {"test_system": "NCI-H522 lung"}, "[17]": {"test_system": "MOLT-4 leukemia"}, "[18]": {"test_system": "LOX IMVI melanoma"}, "[19]": {"test_system": "NCI-H226 lung"}, "[20]": {"test_system": "SK-MEL-2 melanoma"}, "[21]": {"test_system": "NCI-H23 lung"}, "[22]": {"test_system": "SF-268 CNS"}, "[23]": {"test_system": "SF-539 CNS"}, "[24]": {"test_system": "CCRF-CEM leukemia"}, "[25]": {"test_system": "MDA-MB-231 breast"}, "[26]": {"test_system": "CAKI-1 renal"}, "[27]": {"test_system": "COLO 205 colon"}, "[28]": {"test_system": "OVCAR-3 ovarian"}, "[29]": {"test_system": "HCC-2998 colon"}, "[30]": {"test_system": "SN12C renal"}, "[31]": {"test_system": "HCT-116 colon"}, "[32]": {"test_system": "HT29 colon"}, "[33]": {"test_system": "SW-620 colon"}, "[34]": {"test_system": "MCF7 breast"}, "[35]": {"test_system": "HL-60(TB) leukemia"}, "[36]": {"test_system": "SF-295 CNS"}, "[37]": {"test_system": "TK-10 renal"}, "[38]": {"test_system": "A498 renal"}, "[39]": {"test_system": "T-47D breast"}, "[40]": {"test_system": "SNB-19 CNS"}, "[41]": {"test_system": "OVCAR-5 ovarian"}, "[42]": {"test_system": "MDA-N"}, "[43]": {"test_system": "SK-MEL-5 melanoma"}, "[44]": {"test_system": "RPMI-8226 leukemia"}, "[45]": {"test_system": "MALME-3M melanoma"}, "[46]": {"test_system": "OVCAR-8 ovarian"}, "[47]": {"test_system": "UACC-257 melanoma"}, "[48]": {"test_system": "HOP-92 NSCLC"}, "[49]": {"test_system": "ACHN renal"}, "[50]": {"test_system": "SK-MEL-28 melanoma"}, "[51]": {"test_system": "SR leukemia"}, "[52]": {"test_system": "HOP-62 NSCLC"}, "[53]": {"test_system": "UACC-62 melanoma"}, "[54]": {"test_system": "OVCAR-4 ovarian"}, "[55]": {"test_system": "MDA-MB-435"}, "[56]": {"test_system": "UO-31 renal"}}, "note": "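Following 48 hours of exposure in 96-well plates, responses at five concentrations were used to interpolate endpoints linearly. TGI is the concentration that stops growth completely.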", "data": [{"compound": "COc1cc(O)c2c(=O)c(O)c(-c3ccc(O)c(OC)c3)oc2c1", "values": [{"measurement": "TGI", "setting": "[1]", "value": "> 100", "unit": "µM"}, {"measurement": "TGI", "setting": "[2]", "value": "> 100", "unit": "µM"}, {"measurement": "TGI", "setting": "[3]", "value": "> 100", "unit": "µM"}, {"measurement": "TGI", "setting": "[4]", "value": "> 100", "unit": "µM"}, {"measurement": "TGI", "setting": "[5]", "value": "> 100", "unit": "µM"}, {"measurement": "TGI", "setting": "[6]", "value": "> 100", "unit": "µM"}, {"measurement": "TGI", "setting": "[7]", "value": "> 100", "unit": "µM"}, {"measurement": "TGI", "setting": "[8]", "value": "> 100", "unit": "µM"}, {"measurement": "TGI", "setting": "[9]", "value": "> 100", "unit": "µM"}, {"measurement": "TGI", "setting": "[10]", "value": "> 100", "unit": "µM"}, {"measurement": "TGI", "setting": "[11]", "value": "> 20.5", "unit": "µM"}, {"measurement": "TGI", "setting": "[12]", "value": "> 100", "unit": "µM"}, {"measurement": "TGI", "setting": "[13]", "value": "> 100", "unit": "µM"}, {"measurement": "TGI", "setting": "[14]", "value": 10.5, "unit": "µM"}, {"measurement": "TGI", "setting": "[15]", "value": 18.1, "unit": "µM"}, {"measurement": "TGI", "setting": "[16]", "value": 6.21, "unit": "µM"}, {"measurement": "TGI", "setting": "[17]", "value": "> 25", "unit": "µM"}, {"measurement": "TGI", "setting": "[18]", "value": "> 100", "unit": "µM"}, {"measurement": "TGI", "setting": "[19]", "value": "> 100", "unit": "µM"}, {"measurement": "TGI", "setting": "[20]", "value": "> 100", "unit": "µM"}, {"measurement": "TGI", "setting": "[21]", "value": "> 100", "unit": "µM"}, {"measurement": "TGI", "setting": "[22]", "value": "> 100", "unit": "µM"}, {"measurement": "TGI", "setting": "[23]", "value": "> 100", "unit": "µM"}, {"measurement": "TGI", "setting": "[24]", "value": "> 21.9", "unit": "µM"}, {"measurement": "TGI", "setting": "[25]", "value": "> 100", "unit": "µM"}, {"measurement": "TGI", "setting": "[26]", "value": "> 100", "unit": "µM"}, {"measurement": "TGI", "setting": "[27]", "value": "> 86", "unit": "µM"}, {"measurement": "TGI", "setting": "[28]", "value": "> 100", "unit": "µM"}, {"measurement": "TGI", "setting": "[29]", "value": "> 100", "unit": "µM"}, {"measurement": "TGI", "setting": "[30]", "value": "> 100", "unit": "µM"}, {"measurement": "TGI", "setting": "[31]", "value": "> 100", "unit": "µM"}, {"measurement": "TGI", "setting": "[32]", "value": "> 100", "unit": "µM"}, {"measurement": "TGI", "setting": "[33]", "value": "> 100", "unit": "µM"}, {"measurement": "TGI", "setting": "[34]", "value": "> 100", "unit": "µM"}, {"measurement": "TGI", "setting": "[35]", "value": "> 23", "unit": "µM"}, {"measurement": "TGI", "setting": "[36]", "value": "> 100", "unit": "µM"}, {"measurement": "TGI", "setting": "[37]", "value": "> 100", "unit": "µM"}, {"measurement": "TGI", "setting": "[38]", "value": "> 100", "unit": "µM"}, {"measurement": "TGI", "setting": "[39]", "value": "> 100", "unit": "µM"}, {"measurement": "TGI", "setting": "[40]", "value": "> 100", "unit": "µM"}, {"measurement": "TGI", "setting": "[41]", "value": "> 100", "unit": "µM"}, {"measurement": "TGI", "setting": "[42]", "value": "> 100", "unit": "µM"}, {"measurement": "TGI", "setting": "[43]", "value": "> 34.9", "unit": "µM"}, {"measurement": "TGI", "setting": "[44]", "value": "> 100", "unit": "µM"}, {"measurement": "TGI", "setting": "[45]", "value": "> 100", "unit": "µM"}, {"measurement": "TGI", "setting": "[46]", "value": "> 100", "unit": "µM"}, {"measurement": "TGI", "setting": "[47]", "value": "> 100", "unit": "µM"}]}, {"compound": "O[C@@]12Cc3c([nH]c4ccccc34)[C@@H]3Oc4cccc5c4[C@@]31CCN(CC1CC1)[C@@H]2C5", "values": [{"measurement": "TGI", "setting": "[1]", "value": 60.9, "unit": "µM"}, {"measurement": "TGI", "setting": "[2]", "value": 32.6, "unit": "µM"}, {"measurement": "TGI", "setting": "[3]", "value": 45.2, "unit": "µM"}, {"measurement": "TGI", "setting": "[4]", "value": 51.2, "unit": "µM"}, {"measurement": "TGI", "setting": "[5]", "value": 43.5, "unit": "µM"}, {"measurement": "TGI", "setting": "[6]", "value": 39.4, "unit": "µM"}, {"measurement": "TGI", "setting": "[8]", "value": 30.7, "unit": "µM"}, {"measurement": "TGI", "setting": "[9]", "value": 45.4, "unit": "µM"}, {"measurement": "TGI", "setting": "[10]", "value": 47.6, "unit": "µM"}, {"measurement": "TGI", "setting": "[48]", "value": 25.6, "unit": "µM"}, {"measurement": "TGI", "setting": "[12]", "value": 54, "unit": "µM"}, {"measurement": "TGI", "setting": "[13]", "value": 35.3, "unit": "µM"}, {"measurement": "TGI", "setting": "[14]", "value": 55.4, "unit": "µM"}, {"measurement": "TGI", "setting": "[15]", "value": 54, "unit": "µM"}, {"measurement": "TGI", "setting": "[16]", "value": 38, "unit": "µM"}, {"measurement": "TGI", "setting": "[17]", "value": 52.7, "unit": "µM"}, {"measurement": "TGI", "setting": "[18]", "value": 32.9, "unit": "µM"}, {"measurement": "TGI", "setting": "[20]", "value": 41.5, "unit": "µM"}, {"measurement": "TGI", "setting": "[49]", "value": 34.8, "unit": "µM"}, {"measurement": "TGI", "setting": "[21]", "value": 55.6, "unit": "µM"}, {"measurement": "TGI", "setting": "[22]", "value": 34, "unit": "µM"}, {"measurement": "TGI", "setting": "[23]", "value": 36.3, "unit": "µM"}, {"measurement": "TGI", "setting": "[24]", "value": 29.9, "unit": "µM"}, {"measurement": "TGI", "setting": "[25]", "value": 40.4, "unit": "µM"}, {"measurement": "TGI", "setting": "[50]", "value": 38.3, "unit": "µM"}, {"measurement": "TGI", "setting": "[26]", "value": 34.2, "unit": "µM"}, {"measurement": "TGI", "setting": "[27]", "value": 49.8, "unit": "µM"}, {"measurement": "TGI", "setting": "[28]", "value": 36.8, "unit": "µM"}, {"measurement": "TGI", "setting": "[29]", "value": 31.9, "unit": "µM"}, {"measurement": "TGI", "setting": "[30]", "value": 37, "unit": "µM"}, {"measurement": "TGI", "setting": "[32]", "value": 29.8, "unit": "µM"}, {"measurement": "TGI", "setting": "[33]", "value": 25.7, "unit": "µM"}, {"measurement": "TGI", "setting": "[34]", "value": 31.3, "unit": "µM"}, {"measurement": "TGI", "setting": "[37]", "value": 33.7, "unit": "µM"}, {"measurement": "TGI", "setting": "[38]", "value": 40.5, "unit": "µM"}, {"measurement": "TGI", "setting": "[40]", "value": 50.9, "unit": "µM"}, {"measurement": "TGI", "setting": "[41]", "value": 49.4, "unit": "µM"}, {"measurement": "TGI", "setting": "[51]", "value": "> 100", "unit": "µM"}, {"measurement": "TGI", "setting": "[42]", "value": 33.9, "unit": "µM"}, {"measurement": "TGI", "setting": "[52]", "value": 46.6, "unit": "µM"}, {"measurement": "TGI", "setting": "[53]", "value": 32.3, "unit": "µM"}, {"measurement": "TGI", "setting": "[54]", "value": 41.3, "unit": "µM"}, {"measurement": "TGI", "setting": "[43]", "value": 40.7, "unit": "µM"}, {"measurement": "TGI", "setting": "[44]", "value": 41.2, "unit": "µM"}, {"measurement": "TGI", "setting": "[55]", "value": 29.2, "unit": "µM"}, {"measurement": "TGI", "setting": "[56]", "value": 32.9, "unit": "µM"}, {"measurement": "TGI", "setting": "[45]", "value": 33.9, "unit": "µM"}, {"measurement": "TGI", "setting": "[46]", "value": 29, "unit": "µM"}, {"measurement": "TGI", "setting": "[47]", "value": 42, "unit": "µM"}]}]}
